Consider four molecules from patent publication US20200405739A1, “MTOR INHIBITOR, PHARMACEUTICAL COMPOSITION AND USE THEREOF” (SHENYANG FUYANG PHARMACEUTICAL TECHNOLOGY CO., LTD., priority 2018, published 2020).

Data set [1] deals with PI3K/Akt/mTOR signaling pathway protein. Put plainly: Western blot of PI3K/Akt/mTOR pathway proteins in A549 cells (Test Example 2). The class given is cell-based, human. Conditions: 24 h; for activation of PI3K protein, 4EBP1 protein, mTOR protein / expression of Akt protein and S6K1 protein and of their activated proteins: Western blot. The procedure:
A549 cells were purchased from American Type Culture Collection (ATCC, Manassas, Va., USA). The cells were cultured in a DMEM medium containing 10% fetal bovine serum, 2% glutamine and penicillin (100 U/ml) in an incubator at 37° C. with 5% CO2. The cells used in the experiment were all cells in logarithmic phase.
A549 was an adherent cell, cells in logarithmic growth phase was selected as the experimental group.
1) 60-100 μl of lysate was added to each tube of cells, and was subjected to ice bath in a refrigerator at 4° C. for 1 h; the solution was centrifuged for 10-15 min at 12,000 r/min, the supernatant was suck out to a 0.5 ml EP tube; after the quantitative protein was measured with Bio-Rad, 5× loading buffers were added, and the solution was subjected to boiling water bath for 3-5 min and then was cryopreserved at −80° C.
2) 15%, 12% or 10% acrylamide separation gel was prepared according to Tab. 2-1, and was then mixed with various ingredients successively; once TEMED and AP were added, the mixture was quickly rotated and poured between the two glass plates of the electrophoresis tank, leaving the space required for pouring the stacking gel.
The separation gel was covered with a layer of isopropyl alcohol, and the gel was placed vertically at room temperature for about 30 min.
3) After the separation gel was completely polymerized, the isopropyl alcohol was removed, and the gel was washed with deionized water for 10 times; water was absorbed with filter paper, a stacking gel was prepared according to Tab.2-2, and a clean sample comb was immediately inserted after adding the stacking gel into electrophoresis tank.
4) After the stacking gel was completely polymerized, the electrophoresis instrument was filled with 1×electrophoretic buffer solution, samples were added into sample holes according to a predetermined sequence to start electrophoresis, the voltage was 50-60V when the samples were located at the stacking gel, and the voltage was adjusted to 100-140V when the samples swam to the separation gel.
1) After the SDS polyacrylamide gel electrophoresis was completed, the gel was placed in the transfer buffer and soaked for 30 min. 8 pieces of Whatman 3 MM filter paper and 1 piece of nitrocellulose membrane were cut out, which were consistent with the size of the gel. The nitrocellulose membrane was immersed in methanol for 1 min, and the nitrocellulose membrane was immersed in deionized water to remove air bubbles.
2) The gel was stacked into a “sandwich” shape and inserted into the transfer cell. The gel was connected to the cathode on one side, 100 mA for 3 h.
3) The transferred nitrocellulose membrane entered the Ponceau S staining solution for 5-10 min, and was shaken gently during the period. After the protein band appeared, it was rinsed with deionized water several times, and the position of the standard protein molecular weight was marked with waterproof ink.
4) The membrane was placed in a petri dish with a blocking solution and blocked for 2 h.
5) The blocking solution containing a first antibody was added at 0.1 ml/cm^2 and stayed overnight at 4° C. (dilution multiples of various antibodies are as shown in Tab 0.2-2)
6) The first antibody was recovered, the membrane was rinsed with PBST 3 times for 10 min each time, and was then transferred to a solution containing 150 mM NaCl and 50 mM Tris-HCl (pH 7.5) and shaken for 10 min.
7) A phosphate-free and sodium azide-free blocking solution containing a second antibody was added at 0.1 ml/cm2, wherein the second antibody labeled with horseradish peroxidase was diluted 1,000 times.
8) It was rinsed with 150 mM NaCl and 50 mmol/L Tris-HCl (pH 7.5) solution for 3 times for 10 min each time. Color development was carried out in a dark room with an ECL kit, and pictures were scanned and saved. […]

For data set [2], the system named is mouse liver cancer cells H22. The experiment in a line: in vivo tumor growth inhibition.
Data set [3] relates to non-small cell lung cancer cells A549. Put plainly: in vivo tumor growth inhibition.
The conditions of data set [4]: human body; cited from earlier work.

Turning to `CCC(=O)O[C@@H]1CC(=O)O[C@H](C)C/C=C/C=C/[C@H](O[C@H]2CC[C@H](N(C)C)[C@@H](C)O2)[C@H](C)C[C@H](CC=O)[C@H](O[C@@H]2O[C@H](C)[C@@H](O[C@H]3C[C@@](C)(O)[C@@H](OC(=O)CC(C)C)[C@H](C)O3)[C@H](N(C)C)[C@H]2O)[C@H]1OC` [isovalerylspiramycin III], in data set [1], the “activation of PI3K protein, 4EBP1 protein, mTOR protein” value (“activation of PI3K protein” for short) is “inhibit the activation of PI3K protein, 4EBP1 protein and mTOR protein”; the “expression of Akt protein and S6K1 protein and of their activated proteins” value (“expression” for short) is “inhibit the expression of AKT protein and S6K1 protein and the expression of their activated proteins”.
With `CO[C@@H]1[C@@H](O[C@@H]2O[C@H](C)[C@@H](O[C@H]3C[C@@](C)(O)[C@@H](OC(=O)CC(C)C)[C@H](C)O3)[C@H](N(C)C)[C@H]2O)[C@@H](CC=O)C[C@@H](C)[C@@H](O[C@H]2CC[C@H](N(C)C)[C@@H](C)O2)/C=C/C=C/C[C@@H](C)OC(=O)C[C@H]1O` [isovalerylspiramycin I], the “inhibition of tumor growth in vivo” value in data set [2] and in data set [3] was “obvious inhibiting effects” each time. Besides, in data set [1], the “activation of PI3K protein” value was “inhibit the protein activation of the PI3K/AKT/mTOR signaling pathway”. In addition, the “expression” value in data set [1] was “inhibit expression of Akt protein and S6K1 protein and expression of their activated proteins”. Moreover, the “inhibitory effects on AKT, S6K1 and 4EBP1 compared with rapamycin” value in data set [1] (rapamycin 20 μg/ml as control drug) is “more excellent inhibitory effects on AKT, S6K1 and 4EBP1”.
Regarding isovalerylspiramycin II, in data set [1], the “activation of PI3K protein” value was “inhibit the activation of PI3K protein, 4EBP1 protein and mTOR protein”; the “expression” value was “inhibit the expression of AKT protein and S6K1 protein and the expression of their activated proteins”.
Consider spiramycin, for which the absolute oral bioavailability in data set [4] is 30-40%.
